Results: patent US20230111853A1, “COMPOUNDS MODULATING PROTEIN RECRUITMENT AND/OR DEGRADATION” (Orionis Biosciences, Inc., priority 2019, published 2023)

Test system: IKZF1, ASS1 and SALL4 recruitment to CRBN
Experiment: Recruitment assessment: recruitment of any tested substrate from among IKZF1, ASS1 and SALL4
Format: cell-based
Details: any tested substrate at any tested compound concentration
Description: In this experimental set-up, cells were transfected with a construct encoding a CRBN-fusion protein and another one encoding a substrate-fusion protein. Test compound activity was assessed with increasing concentrations of test compounds (dose-response studies) to monitor the ability to promote CRBN-ligand-induced protein interaction.
Full size proteins were fused for each of the target proteins tested, except in the case of IKZF1 where isoform 7 was used. For the study, the following were used: IKZF1 recruitment: pSEL-CRBN+pMG1-IKZF1(isoform 7); ASS1 recruitment: pSEL-CRBN+pMG1-ASS1. SALL4 recruitment: pSEL-SALL4+pMG1-CRBN. […] Luciferase activity was measured 24 hours after test compound treatment using the Luciferase Assay System kit (PROMEGA, Madison, Wis.) with an Ensight plate reader (PERKIN ELMER LIFE SCIENCES, Waltham, Mass.). Data points depicted fold induction of the average luciferase activity of triplicate samples from EPO+test compound treated cells versus EPO only treated cells. Error bars represent standard deviations. Curves were fit using 4-parameter nonlinear regression in […] PRISM software.

SMILES | Recruitment Assessment
O=C1CCC(N2Cc3ccccc3C2=O)C(=O)N1 (single isomer, unassigned) [5′-OH-THL, 3-(1-oxoisoindolin-2-yl)piperidine-2,6-dione, reference compound] | FALSE
O=C1N=c2ccc(NC(=O)NCc3ccccc3)cc2=N1 [1-benzyl-3-(2-oxobenzimidazol-5-yl)urea] | FALSE
O=C(O)CNc1cccc2c1CN(C1CCC(=O)NC1=O)C2=O (stereo not shown) [2-[[2-(2,6-dioxo-3-piperidyl)-1-oxo-isoindolin-4-yl]amino]acetic acid] | FALSE
O=C1CCC(N2C(=O)c3ccccc3C2OCc2ccccc2)C(=O)N1 (stereo not shown) [3-(1-benzyloxy-3-oxo-isoindolin-2-yl)piperidine-2,6-dione] | FALSE
O=C1CCC(N2Cc3ccccc3C2=O)C(=O)N1 (stereo not shown) [3-(1-oxoisoindolin-2-yl)piperidine-2,6-dione] | TRUE
Nc1cccc2c1C(=O)N(C1CCC(=O)NC1=O)C2 (stereo not shown) [3-(7-amino-1-oxo-isoindolin-2-yl)piperidine-2,6-dione] | TRUE
O=C1CCC(N2C(=O)c3ccccc3C2OC2CCCCC2)C(=O)N1 (stereo not shown) [3-[1-(cyclohexoxy)-3-oxo-isoindolin-2-yl]piperidine-2,6-dione] | FALSE
O=C1CCC(N2C(=O)c3ccccc3C2Nc2ccccc2)C(=O)N1 (stereo not shown) [C10537, 3-(1-anilino-3-oxo-isoindolin-2-yl)piperidine-2,6-dione] | FALSE
COc1ccc(C2c3ccccc3C(=O)N2C2CCC(=O)NC2=O)cc1 (stereo not shown) [C11892] | FALSE
O=C1CCC(N2Cc3ccc(NCC(=O)N4CCCCC4)cc3C2=O)C(=O)N1 (stereo not shown) [C12581, 3-[1-oxo-6-[[2-oxo-2-(1-piperidyl)ethyl]amino]isoindolin-2-yl]piperidine-2,6-dione] | FALSE
CC1CCN(C(=O)CNc2ccc3c(c2)C(=O)N(C2CCC(=O)NC2=O)C3)CC1 (stereo not shown) [C12582, 3-[6-[[2-(4-methyl-1-piperidyl)-2-oxo-ethyl]amino]-1-oxo-isoindolin-2-yl]piperidine-2,6-dione] | FALSE
CC1CCCN(C(=O)CNc2ccc3c(c2)C(=O)N(C2CCC(=O)NC2=O)C3)C1 (stereo not shown) [C12583, 3-[6-[[2-(3-methyl-1-piperidyl)-2-oxo-ethyl]amino]-1-oxo-isoindolin-2-yl]piperidine-2,6-dione] | FALSE
CC1CCCCN1C(=O)CNc1ccc2c(c1)C(=O)N(C1CCC(=O)NC1=O)C2 (stereo not shown) [C12584, 3-[6-[[2-(2-methyl-1-piperidyl)-2-oxo-ethyl]amino]-1-oxo-isoindolin-2-yl]piperidine-2,6-dione] | FALSE
CC1CN(C(=O)CNc2ccc3c(c2)C(=O)N(C2CCC(=O)NC2=O)C3)CCO1 (stereo not shown) [C12586, 3-[6-[[2-(2-methylmorpholin-4-yl)-2-oxo-ethyl]amino]-1-oxo-isoindolin-2-yl]piperidine-2,6-dione] | FALSE
O=C1CCC(N2Cc3ccc(NCC(=O)N4CC5CC4CO5)cc3C2=O)C(=O)N1 (stereo not shown) [C12589, 3-[6-[[2-(2-oxa-5-azabicyclo[2.1.1]heptan-5-yl)-2-oxo-ethyl]amino]-1-oxo-isoindolin-2-yl]piperidine] | FALSE
CC1CN(C)CCN1C(=O)CNc1ccc2c(c1)C(=O)N(C1CCC(=O)NC1=O)C2 (stereo not shown) [C12595, 3-[6-[[2-(2,4-dimethylpiperazin-1-yl)-2-oxo-ethyl]amino]-1-oxo-isoindolin-2-yl]piperidine-2,6-dione] | FALSE
CN1CCN(C(=O)CNc2ccc3c(c2)C(=O)N(C2CCC(=O)NC2=O)C3)CC1=O (stereo not shown) [C12597, 3-[6-[[2-(4-methyl-3-oxo-piperazin-1-yl)-2-oxo-ethyl]amino]-1-oxo-isoindolin-2-yl]piperidine-2,6-dione] | FALSE

SMILES | Recruitment Assessment
CC1CN(C(=O)CNc2ccc3c(c2)C(=O)N(C2CCC(=O)NC2=O)C3)CC(=O)N1 (stereo not shown) [C12598, 3-[6-[[2-(3-methyl-5-oxo-piperazin-1-yl)-2-oxo-ethyl]amino]-1-oxo-isoindolin-2-yl]piperidine-2,6-dione] | FALSE
CC1CC(NC(=O)CNc2ccc3c(c2)C(=O)N(C2CCC(=O)NC2=O)C3)CCO1 (stereo not shown) [C12695, 2-[[2-(2,6-dioxo-3-piperidyl)-3-oxo-isoindolin-5-yl]amino]-N-(2-methyltetrahydropyran-4-yl)acetamide] | FALSE
CC1CCCN(C(=O)CNc2ccc3c(c2)C(=O)N(C2CCC(=O)NC2=O)C3)CC1 (stereo not shown) [C12697, 3-[6-[[2-(4-methylazepan-1-yl)-2-oxo-ethyl]amino]-1-oxo-isoindolin-2-yl]piperidine-2,6-dione] | FALSE
O=C1CCC(N2C(=O)CCC2=O)C(=O)N1 (stereo not shown) [C14950, 3-(2,5-dioxopyrrolidin-1-yl)piperidine-2,6-dione] | FALSE
O=C1Cc2ccccc2C(=O)N1 [C15352, 4H-isoquinoline-1,3-dione] | FALSE
O=C1c2ccccc2CC1n1ccc(=O)[nH]c1=O (stereo not shown) [C16899, 1-(1-oxoindan-2-yl)pyrimidine-2,4-dione] | FALSE
CNC(=O)Nc1cccc2c1CN(C1CCC(=O)NC1=O)C2=O (stereo not shown) [C22594, 1-[2-(2,6-dioxo-3-piperidyl)-1-oxo-isoindolin-4-yl]-3-methyl-urea] | TRUE
O=C1CCC(CN2C(=O)c3ccccc3C2=O)C(=O)N1 (stereo not shown) [C23258, 2-[(2,6-dioxo-3-piperidyl)methyl]isoindoline-1,3-dione] | FALSE
Cc1cccc2c1C(=O)N(C1CCC(=O)NC1=O)C2 (stereo not shown) [C28661, 3-(7-methyl-1-oxo-isoindolin-2-yl)piperidine-2,6-dione] | FALSE
O=C1CCC(N2Cc3cc(O)ccc3C2=O)C(=O)N1 (stereo not shown) [C28891, 3-(5-hydroxy-1-oxo-isoindolin-2-yl)piperidine-2,6-dione] | TRUE
O=C1CCC(N2Cc3ccc(O)cc3C2=O)C(=O)N1 (stereo not shown) [C28928, 3-(6-hydroxy-1-oxo-isoindolin-2-yl)piperidine-2,6-dione] | TRUE
O=C1CCC(N2Cc3cccc(O)c3C2=O)C(=O)N1 (stereo not shown) [C28973, 3-(7-hydroxy-1-oxo-isoindolin-2-yl)piperidine-2,6-dione] | TRUE
COc1cccc2c1C(=O)N(C1CCC(=O)NC1=O)C2 (stereo not shown) [C29137, 3-(7-methoxy-1-oxo-isoindolin-2-yl)piperidine-2,6-dione] | FALSE
CC(=O)Nc1cccc2c1CN(C1CCC(=O)NC1=O)C2=O (stereo not shown) [C29330, N-[2-(2,6-dioxo-3-piperidyl)-1-oxo-isoindolin-4-yl]acetamide] | TRUE
CC(=O)Nc1ccc2c(c1)C(=O)N(C1CCC(=O)NC1=O)C2 (stereo not shown) [C29408, N-[2-(2,6-dioxo-3-piperidyl)-3-oxo-isoindolin-5-yl]acetamide] | FALSE
CC(=O)Nc1cccc2c1C(=O)N(C1CCC(=O)NC1=O)C2 (stereo not shown) [C29457, N-[2-(2,6-dioxo-3-piperidyl)-3-oxo-isoindolin-4-yl]acetamide] | TRUE
NC(=O)Nc1cccc2c1CN(C1CCC(=O)NC1=O)C2=O (stereo not shown) [C29490, [2-(2,6-dioxo-3-piperidyl)-1-oxo-isoindolin-4-yl]urea] | TRUE
